Usually IC50 stands for the concentration that inhibits the measured activity by half.

This experiment has as its target T1, full length active recombinant SYK enzyme (Homo sapiens, UniProt P43405).
T1 construct: full length active recombinant SYK enzyme (Millipore, Calif.); purchased Millipore
Briefly: Inhibition of Syk tyrosine phosphorylation activity (LANCE TR-FRET kinase assay). It counts as biochemical. To be noted: 1 nM active SYK enzyme, 550 nM SYK-substrate, 100 μM ATP, 1 hour at room temperature. As to the method:
The in vitro and in vivo human Syk activities of the inventive compounds can be determined by various procedures known in the art, such as a test for their ability to inhibit the activity of human plasma Syk.
Inhibition of Syk Tyrosine Phosphorylation Activity
SYK tyrosine phosphorylation activity is measured using the LANCE™ Technology developed by Perkin Elmer Life and Analytical Sciences (Boston, Mass.). LANCE™ refers to homogeneous time resolved fluorometry applications using techniques such as time-resolved fluorescence resonance energy transfer assay (TR-FRET) (see generally for procedures in Perkin Elmer Application Note—How to Optimize a Tyrosine Kinase Assay Using Time Resolved Fluorescence-Based LANCE Detection, wwww.perkinelmer.com/lifesciences). The assay principle involves detection of a phosphorylated substrate using energy transfer from a phosphospecific europium-labeled antibody to streptavidin-allophycocyanin as an acceptor.
Molecules are reconstituted in 30% DMSO and serially diluted 1:3 with the final dilution containing DMSO in the absence of the candidate molecule. The final DMSO concentration in the assay is 3%. Kinase assays are performed as a two part reaction. […] The second reaction involves termination of the kinase reaction and the simultaneous addition of the detection reagents-europium-labeled anti-phosphotyrosine reagent (Eu-W1024-PY100, Perkin Elmer, Boston, Mass.) and Streptavidin-Allophycocyanin detection reagent (SA-APC, Prozyme, CA). The kinase reaction is performed in a black U-bottom 96-well microtitre plate. […] The reaction is allowed to proceed for 1 hour at room temperature. The quench buffer contains 100 mM Tris pH 7.5, 300 mM […], 20 mM EDTA, 0.02% Brij35, and 0.5% BSA. The detection reagents are added to the reaction mixture at the following dilutions-1:500 for Eu-W1024-PY100 and 1:250 for SA-APC. The kinase reaction is terminated by the addition of 50 μL quench buffer containing the detection reagents. The detection is allowed to proceed for 1 hr at room temperature. Detection of the phosphorlated substrate in the absence and presence of inhibitors is measured in the TR-FRET instrument, Analyst HT (Molecular Probes, Sunnyvale, Calif.) and the condition for measurements are set up using CriterionHost Release 2.0 (Molecular Probes, Sunnyvale, Calif.). […] IC50s were derived by non-linear regression analysis.
On the technique in general: In TR-FRET formats the signal depends on donor and acceptor labels being close together.
For `NC(=O)c1nnc(N[C@@H]2CCCC[C@@H]2N)nc1Nc1cncc(F)c1` [Example 14, 3-(((1R,2S)-2-aminocyclohexyl)amino)-5-((5-fluoropyridin-3-yl)amino)-1,2,4-triazine-6-carboxamide], the IC50 lay in the range of 100 to 1000 nM. Under `CC[C@@H](Nc1nnc(C(N)=O)c(Nc2ccc3c(c2)COC3)n1)C(N)=O` [Example 215, (R)-3-((1-amino-1-oxobutan-2-yl)amino)-5-((1,3-dihydroisobenzofuran-5-yl)amino)-1,2,4-triazine-6-carboxamide] stands 10 to 100 nM; under `NC(=O)c1nnc(N[C@@H]2CCCC[C@@H]2N)nc1Nc1cc(F)cc(F)c1` [Example 20, 3-(((1R,2S)-2-aminocyclohexyl)amino)-5-((3,5-difluorophenyl)amino)-1,2,4-triazine-6-carboxamide], 1 to 10 nM; under `Cc1cc(Nc2nc(N[C@@H]3CCCC[C@@H]3N)nnc2C(N)=O)ccc1C(=O)N1CCC1` [Example 64, 3-(((1R,2S)-2-aminocyclohexyl)amino)-5-((4-(azetidine-1-carbonyl)-3-methylphenyl)amino)-1,2,4-triazine-6-carboxamide], 10 to 100 nM. In the case of `NC(=O)c1nnc(N[C@@H]2CCCC[C@@H]2N)nc1Nc1cccnc1` [Example 100, 3-(((1R,2S)-2-aminocyclohexyl)amino)-5-(pyridin-3-ylamino)-1,2,4-triazine-6-carboxamide], the half-maximal inhibitory concentration (IC50) was in the range of 10 to 100 nM. The value for `Cn1cc(C#N)c2ccc(Nc3nc(N[C@@H]4CCOC[C@@H]4N)nnc3C(N)=O)cc21` [Example 172, 3-(((3R,4R)-3-aminotetrahydro-2H-pyran-4-yl)amino)-5-((3-cyano-1-methyl-1H-indol-6-yl)amino)-1,2,4-triazine-6-carboxamide] was 1 to 10 nM; that for `Cc1cccc(Nc2nc(N[C@@H]3CCCC(F)(F)[C@@H]3N)nnc2C(N)=O)c1` [Example 12, 3-(((1R,2R)-2-amino-3,3-difluorocyclohexyl)amino)-5-(m-tolylamino)-1,2,4-triazine-6-carboxamide] was 10 to 100 nM; that for `CC[C@@H](Nc1nnc(C(N)=O)c(Nc2cccc3c2cnn3C)n1)C(N)=O` [Example 107, (R)-3-((1-amino-1-oxobutan-2-yl)amino)-5-((1-methyl-1H-indazol-4-yl)amino)-1,2,4-triazine-6-carboxamide] was 10 to 100 nM. As to `CN(C)C(=O)c1ccc(Nc2nc(N[C@@H]3CCCC[C@@H]3N)nnc2C(N)=O)cc1` [Example 62, 3-(((1R,2S)-2-aminocyclohexyl)amino)-5-((4-(dimethylcarbamoyl)phenyl)amino)-1,2,4-triazine-6-carboxamide], the IC50 lay in the range of 100 to 1000 nM. On to `NC(=O)c1nnc(N[C@@H]2CCOC[C@@H]2N)nc1Nc1ccc(Cl)cc1` [Example 243, 3-(((3R,4R)-3-aminotetrahydro-2H-pyran-4-yl)amino)-5-((4-chlorophenyl)amino)-1,2,4-triazine-6-carboxamide], for which the IC50 was in the range of 10 to 100 nM. The value for `NC(=O)c1nnc(N[C@@H]2CCOC[C@@H]2N)nc1Nc1cccc(-c2ncccn2)c1` [Example 71, 3-(((3R,4R)-3-aminotetrahydro-2H-pyran-4-yl)amino)-5-((3-(pyrimidin-2-yl)phenyl)amino)-1,2,4-triazine-6-carboxamide] was 10 to 100 nM. In the case of `CC[C@@H](Nc1nnc(C(N)=O)c(Nc2ccc(-n3nccn3)cc2)n1)C(N)=O` [Example 98, (R)-5-((4-(2H-1,2,3-triazol-2-yl)phenyl)amino)-3-((1-amino-1-oxobutan-2-yl)amino)-1,2,4-triazine-6-carboxamide], the IC50 was 10 to 100 nM. As for `Cn1ccc2ccc(Nc3nc(N[C@@H]4CCCC[C@@H]4N)nnc3C(N)=O)cc21` [Example 119, 3-(((1R,2S)-2-aminocyclohexyl)amino)-5-((1-methyl-1H-indol-6-yl)amino)-1,2,4-triazine-6-carboxamide], the IC50 lay within 1 to 10 nM. Under `CC[C@@H](Nc1nnc(C(N)=O)c(Nc2ccc(C(F)(F)F)c(C(F)(F)F)c2)n1)C(N)=O` [Example 135, (R)-3-((1-amino-1-oxobutan-2-yl)amino)-5-((3,4-bis(trifluoromethyl)phenyl)amino)-1,2,4-triazine-6-carboxamide] stands 10 to 100 nM; under `CC[C@@H](Nc1nnc(C(N)=O)c(Nc2cccc(C#N)c2)n1)C(N)=O` [Example 73, (R)-3-((1-amino-1-oxobutan-2-yl)amino)-5-((3-cyanophenyl)amino)-1,2,4-triazine-6-carboxamide], 100 to 1000 nM; under `CC(C)C[C@@H](Nc1nnc(C(N)=O)c(Nc2cccc(-n3nccn3)c2)n1)C(N)=O` [Example 83, (R)-5-((3-(2H-1,2,3-triazol-2-yl)phenyl)amino)-3-((1-amino-4-methyl-1-oxopentan-2-yl)amino)-1,2,4-triazine-6-carboxamide], 10 to 100 nM. As to `COc1cc(Nc2nc(N[C@@H]3CCCC(F)(F)[C@@H]3N)nnc2C(N)=O)ccc1C` [Example 229, 3-(((1R,2R)-2-amino-3,3-difluorocyclohexyl)amino)-5-((3-methoxy-4-methylphenyl)amino)-1,2,4-triazine-6-carboxamide], the concentration for half-maximal inhibition (IC50) was in the range of 10 to 100 nM. The value for `CC[C@@H](Nc1nnc(C(N)=O)c(Nc2ccc(C)c(OC)c2)n1)C(N)=O` [Example 231, (R)-3-((1-amino-1-oxobutan-2-yl)amino)-5-((3-methoxy-4-methylphenyl)amino)-1,2,4-triazine-6-carboxamide] was 10 to 100 nM; that for `CC[C@@H](Nc1nnc(C(N)=O)c(Nc2cccc(C(F)(F)F)c2)n1)C(N)=O` [Example 171, (R)-3-((1-amino-1-oxobutan-2-yl)amino)-5-((3-(trifluoromethyl)phenyl)amino)-1,2,4-triazine-6-carboxamide] was 100 to 1000 nM. Under `Cn1ccc2c(Nc3nc(N[C@@H]4CCCC(F)(F)[C@@H]4N)nnc3C(N)=O)cccc21` [Example 94, 3-(((1R,2R)-2-amino-3,3-difluorocyclohexyl)amino)-5-((1-methyl-1H-indol-4-yl)amino)-1,2,4-triazine-6-carboxamide] stands 1 to 10 nM; under `CC[C@@H](Nc1nnc(C(N)=O)c(Nc2ccc(N(C)C)c(F)c2)n1)C(N)=O` [Example 162, (R)-3-((1-amino-1-oxobutan-2-yl)amino)-5-((4-(dimethylamino)-3-fluorophenyl)amino)-1,2,4-triazine-6-carboxamide], 10 to 100 nM; under `NC(=O)c1nnc(N[C@@H]2CCCC(F)(F)[C@@H]2N)nc1Nc1ccc2c(c1)CS(=O)(=O)C2` [Example 217, 3-(((1R,2R)-2-amino-3,3-difluorocyclohexyl)amino)-5-((2,2-dioxido-1,3-dihydrobenzo[c]thiophen-5-yl)amino)-1,2,4-triazine-6-carboxamide], 100 to 1000 nM. Under `Cn1ncc2cc(Nc3nc(N[C@@H]4CCCC[C@@H]4N)nnc3C(N)=O)ccc21` [Example 109, 3-(((1R,2S)-2-aminocyclohexyl)amino)-5-((1-methyl-1H-indazol-5-yl)amino)-1,2,4-triazine-6-carboxamide] stands 1 to 10 nM; under `Cc1ccc(Nc2nc(N[C@@H]3CCOC[C@@H]3N)nnc2C(N)=O)cc1C` [Example 145, 3-(((3R,4R)-3-aminotetrahydro-2H-pyran-4-yl)amino)-5-((3,4-dimethylphenyl)amino)-1,2,4-triazine-6-carboxamide], 1 to 10 nM; under `CC[C@@H](Nc1nnc(C(N)=O)c(Nc2ccc(C#N)cc2)n1)C(N)=O` [Example 74, (R)-3-((1-amino-1-oxobutan-2-yl)amino)-5-((4-cyanophenyl)amino)-1,2,4-triazine-6-carboxamide], 100 to 1000 nM. Consider `NC(=O)c1nnc(N[C@@H]2CCCC(F)(F)[C@@H]2N)nc1Nc1ccc2c(c1)COC2` [Example 216, 3-(((1R,2R)-2-amino-3,3-difluorocyclohexyl)amino)-5-((1,3-dihydroisobenzofuran-5-yl)amino)-1,2,4-triazine-6-carboxamide], for which the IC50 lay in the range of 10 to 100 nM. Take `NC(=O)c1nnc(N[C@@H]2CCOC[C@@H]2N)nc1Nc1ccc(C(F)(F)F)cc1` [Example 242, 3-(((3R,4R)-3-aminotetrahydro-2H-pyran-4-yl)amino)-5-((4-(trifluoromethyl)phenyl)amino)-1,2,4-triazine-6-carboxamide]: the IC50 fell in the range of 10 to 100 nM. Under `NC(=O)c1nnc(N[C@@H]2CCNC2)nc1Nc1ccc2ncccc2c1` [Example 57, (R)-3-(pyrrolidin-3-ylamino)-5-(quinolin-6-ylamino)-1,2,4-triazine-6-carboxamide] stands 1 to 10 nM.

The values above are taken from patent US9040530B2, “1,2,4-triazine-6-carboxamide kinase inhibitors” (Portola Pharmaceuticals, Inc., priority 2012, dated 2015).
